Experimental data reported in patent US9840510B1, “Pyrazolo[1,5-a]pyrimidinyl carboxamide compounds and their use in the treatment of medical disorders” (Lysosomal Therapeutics Inc., priority 2016, dated 2017).
≈ marks a conversion by molar mass, not a printed value.

Columns and labels:
[1] = Compound solubility in water; format: physicochemical
[2] = target: T1, glucocerebrosidase (Gcase) (Homo sapiens, UniProt P04062); test: Glucocerebrosidase (Gcase) activation assay, 4-methylumbelliferyl-beta-D-glucopyranoside substrate, fluorescence endpoint; format: biochemical; settings: for Percent Gcase Activation, 0.1 μM Test Compound: test compound at 0.1 μM; for Percent Gcase Activation, 1 μM Test Compound: test compound at 1.0 μM
T1 sequence (P04062 40-536): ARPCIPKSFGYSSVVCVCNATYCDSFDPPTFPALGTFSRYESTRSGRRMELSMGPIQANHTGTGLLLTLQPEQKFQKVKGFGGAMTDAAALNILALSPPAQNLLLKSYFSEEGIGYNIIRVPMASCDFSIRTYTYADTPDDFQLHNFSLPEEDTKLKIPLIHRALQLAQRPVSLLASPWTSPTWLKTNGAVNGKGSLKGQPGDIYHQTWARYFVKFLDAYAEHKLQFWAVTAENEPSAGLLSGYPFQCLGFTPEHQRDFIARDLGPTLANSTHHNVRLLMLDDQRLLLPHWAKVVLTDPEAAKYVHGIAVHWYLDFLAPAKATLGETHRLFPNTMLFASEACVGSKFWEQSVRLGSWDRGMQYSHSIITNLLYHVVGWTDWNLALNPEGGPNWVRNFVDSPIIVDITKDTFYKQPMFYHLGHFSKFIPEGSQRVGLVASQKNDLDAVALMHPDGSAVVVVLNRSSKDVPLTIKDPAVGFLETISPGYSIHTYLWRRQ
Method: The ability of exemplary compounds to activate glucocerebrosidase (Gcase) was measured.
A 484 μL aliquot of a 1.0 mg/mL solution of phosphatidylserine (PS) (Sigma P7769) in chloroform was evaporated under a stream of nitrogen for 1 hour. The lipid film was dissolved over 4 minutes of vigorous vortexing in 40 mL of 176 mM K2HPO4/50 mM citric acid (pH 4.7) containing 7.5 μL of triton X-100, resulting in a mixed micellar preparation with a composition of 0.32 mM triton and 0.37 mol % PS. 4-Methylumbelliferyl-beta-D-glucopyranoside (ACROS-337025000) was dissolved in the micellar solution to a final concentration of 2 mM for use as the reaction substrate.
Test compounds were diluted to the desired concentrations with dimethylsulfoxide (DMSO) from 10 mM stocks, and 0.41 μL of the DMSO compound mixture was added to 100 μL of micellar solution containing 10 nM GCase and 100 nM saposin C (Enzo ALX-201-262-C050). Pre-incubation was allowed to occur for 30 minutes at room temperature, after which the reaction was initiated by combining 25 μL of substrate solution with 25 μL of compound/GCase/saposin mixture. The reaction proceeded for 15 minutes at room temperature and was stopped by adding 150 μL of 1M glycine, pH 12.5. The endpoint of the reaction was monitored by measuring fluorescence intensity (excitation: 365 nm; emission: 440 nm) on a SpectraMax i3 instrument (Molecular Devices). Test compounds were screened at 1.0 and 0.1 μM final concentration, and subsequent 8-point dose response curves were obtained using 3-fold dilutions from a maximum final concentration of 5 μM.

SMILES	solubility [1] [µg/mL]	Percent Gcase Activation, 0.1 μM Test Compound [2]	Percent Gcase Activation, 1 μM Test Compound [2]
COc1cccc(-c2cc(C)n3ncc(C(=O)NC(C4CC4)C(F)(F)F)c3n2)c1 (stereo not drawn) [III-105]	0.08 (≈ 0.198 µM)	*** (greater than 20% Gcase activation)	+++ (Gcase activation greater than 60%)
Cc1cc(-c2ccc(Cl)cn2)nc2c(C(=O)N[C@@H](C3CC3)C(F)(F)F)cnn12 [III-118]	0.4 (≈ 0.976 µM)	*** (greater than 20% Gcase activation)	+++ (Gcase activation greater than 60%)
Cc1cc(-c2cccc(F)n2)nc2c(C(=O)NC(C)C3CC3)cnn12 (stereo not drawn) [III-130]	0.2 (≈ 0.589 µM)	*** (greater than 20% Gcase activation)	+++ (Gcase activation greater than 60%)
COc1ccc(F)c(-c2cc(C)n3ncc(C(=O)NC(C)C(F)(F)F)c3n2)c1 (stereo not drawn) [III-409]	0.9 (≈ 2.27 µM)	–	–
COc1cc(F)cc(-c2cc(C)n3ncc(C(=O)NC(C)C(F)(F)F)c3n2)c1 (stereo not drawn) [III-410]	0.06 (≈ 0.151 µM)	–	–
Cc1cc(-c2ccns2)nc2c(C(=O)NC(C3CC3)C(F)(F)F)cnn12 (stereo not drawn) [III-411]	0.7 (≈ 1.84 µM)	–	–
C#CC(C)(C)NC(=O)c1cnn2c(C)cc(-c3ccns3)nc12 [III-412]	3.7 (≈ 11.4 µM)	–	–

Continued, values first:

solubility [1] [µg/mL]	Percent Gcase Activation, 0.1 μM Test Compound [2]	Percent Gcase Activation, 1 μM Test Compound [2]	SMILES
6 (≈ 13.5 µM)	–	–	Cc1cc(-c2cccc(C(=O)N(C)C)c2)nc2c(C(=O)NC(C3CC3)C(F)(F)F)cnn12 (stereo not drawn) [III-413]
1.6 (≈ 3.71 µM)	–	–	CNC(=O)c1cccc(-c2cc(C)n3ncc(C(=O)NC(C4CC4)C(F)(F)F)c3n2)c1 (stereo not drawn) [III-414]
1.2 (≈ 2.72 µM)	–	–	Cc1cc(-c2cccc(-n3cccn3)c2)nc2c(C(=O)NC(C3CC3)C(F)(F)F)cnn12 (stereo not drawn) [III-415]
0.3 (≈ 0.68 µM)	–	–	Cc1cc(-c2cccc(-c3ncco3)c2)nc2c(C(=O)NC(C3CC3)C(F)(F)F)cnn12 (stereo not drawn) [III-416]
0.04 (≈ 0.0884 µM)	–	–	Cc1cc(-c2cccc(-c3ncccn3)c2)nc2c(C(=O)NC(C3CC3)C(F)(F)F)cnn12 (stereo not drawn) [III-417]
